In US12617783B2, “Heterocyclic GLP-1R agonists” (BIOMEA FUSION, INC., priority 2024, dated 2026):

Each compound was assayed against T1, human GLP-1R (Homo sapiens, UniProt P43220) (assay: GLP-1R cAMP assay (Example B1a, HTRF, 30 min at room temperature)). Settings: cAMP accumulation in HEK293 expressing human GLP-1R, no BETP, 30 min room temperature (Method B1a, compounds ID 1-609), Table 1; read-out: EC50.
T1 construct: host or cells: HEK293
Type: cell-based
In short: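 Competitive HTRF read-out of cAMP after 30 min room-temperature stimulation, BETP absent, of human GLP-1R-HEK293 cells (1,000/well) in HEPES buffer with 500 μM IBMX and 0.1% BSA. Activation normalised to GLP-1(7-37) positive control. EC50 from 4-parameter non-linear regression.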

T1 sequence (P43220 24-463): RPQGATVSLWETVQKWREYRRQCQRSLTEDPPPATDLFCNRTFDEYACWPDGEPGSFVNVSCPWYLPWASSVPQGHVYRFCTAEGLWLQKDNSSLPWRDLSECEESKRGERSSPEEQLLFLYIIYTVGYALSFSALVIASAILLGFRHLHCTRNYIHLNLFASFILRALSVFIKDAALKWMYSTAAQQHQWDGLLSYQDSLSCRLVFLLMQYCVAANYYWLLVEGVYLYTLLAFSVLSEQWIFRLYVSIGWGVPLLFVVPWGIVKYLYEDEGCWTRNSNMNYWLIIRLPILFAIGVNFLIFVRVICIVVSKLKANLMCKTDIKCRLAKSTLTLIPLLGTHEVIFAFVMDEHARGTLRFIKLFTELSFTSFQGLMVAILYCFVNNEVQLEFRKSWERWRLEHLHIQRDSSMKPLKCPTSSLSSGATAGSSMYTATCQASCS

Structure (SMILES) | EC50
Cc1cc(-n2nc3c(c2-n2ccn(-c4ccc5c(cnn5C)c4F)c2=O)[C@H]2CC[C@@H](CC3)N2C(=O)c2cc3cc([C@H]4CCOC(C)(C)C4)ccc3n2[C@@]2(c3noc(=O)[nH]3)C[C@@H]2C)cc(C)c1F [Compound 524, 3-[(1S,2S)-1-[5-[(4S)-2,2-dimethyltetrahydropyran-4-yl]-2-[(1R,9S)-4-(4-fluoro-3,5-dimethyl-phenyl)-3-[3-(4-fluoro-1-methyl-indazol-5-yl)-2-oxo-imidazol-1-yl]-4,5,12-triazatricyclo[7.2.1.02,6]dodeca-2,5-diene-12-carbonyl]indol-1-yl]-2-methyl-cyclopropyl]-4H-1,2,4-oxadiazol-5-one] | ≥ 10 µM
Cc1cc(-n2nc3c(c2-n2ccn(-c4ccc5c(cnn5C)c4F)c2=O)[C@@H]2COC[C@H](C3)N2S(=O)(=O)c2cc3cc(C4CCOCC4)ccc3n2[C@@]2(c3noc(=O)[nH]3)C[C@@H]2C)cc(C)c1F [Compound 526, 3-[(1S,2S)-1-[2-[[(1R,8S)-4-(4-fluoro-3,5-dimethyl-phenyl)-3-[3-(4-fluoro-1-methyl-indazol-5-yl)-2-oxo-imidazol-1-yl]-10-oxa-4,5,12-triazatricyclo[6.3.1.02,6]dodeca-2,5-dien-12-yl]sulfonyl]-5-tetrahydropyran-4-yl-indol-1-yl]-2-methyl-cyclopropyl]-4H-1,2,4-oxadiazol-5-one] | 1.13 µM
Cc1cc(-n2nc3c(c2-n2ccn(-c4ccc5c(cnn5C)c4F)c2=O)[C@@H]2CCC[C@H](C3)N2S(=O)(=O)c2cc3cc([C@H]4CCOC(C)(C)C4)ccc3n2C2(c3noc(=O)[nH]3)C[C@@H]2C)cc(C)c1F (stereo partly drawn) [Compound 527, 3-[(2S)-1-[5-[(4S)-2,2-dimethyltetrahydropyran-4-yl]-2-[[(1S,8R)-4-(4-fluoro-3,5-dimethyl-phenyl)-3-[3-(4-fluoro-1-methyl-indazol-5-yl)-2-oxo-imidazol-1-yl]-4,5,12-triazatricyclo[6.3.1.02,6]dodeca-2,5-dien-12-yl]sulfonyl]indol-1-yl]-2-methyl-cyclopropyl]-4H-1,2,4-oxadiazol-5-one] | 0.975 µM
Cc1cc(-n2nc3c(c2-n2ccn(-c4ccc5c(cnn5C)c4F)c2=O)[C@H]2CC[C@@H](C3)N2C(=O)c2cc3cc([C@@H]4CCOC5(CC5)C4)ccc3n2[C@]2(c3noc(=O)[nH]3)C[C@@H]2C)cc(C)c1F [Compound 530, 3-[(1R,2S)-1-[2-[(1R,8S)-4-(4-fluoro-3,5-dimethyl-phenyl)-3-[3-(4-fluoro-1-methyl-indazol-5-yl)-2-oxo-imidazol-1-yl]-4,5,11-triazatricyclo[6.2.1.02,6]undeca-2,5-diene-11-carbonyl]-5-[(7R)-4-oxaspiro[2.5]octan-7-yl]indol-1-yl]-2-methyl-cyclopropyl]-4H-1,2,4-oxadiazol-5-one] | ≥ 10 µM
Cc1cc(-n2nc3c(c2-n2ccn(-c4ccc5c(cnn5C)c4F)c2=O)[C@H]2CC[C@@H](C3)N2C(=O)c2cc3cc([C@H]4CCOC5(CC5)C4)ccc3n2[C@]2(c3noc(=O)[nH]3)C[C@@H]2C)cc(C)c1F [Compound 531, 3-[(1R,2S)-1-[2-[(1R,8S)-4-(4-fluoro-3,5-dimethyl-phenyl)-3-[3-(4-fluoro-1-methyl-indazol-5-yl)-2-oxo-imidazol-1-yl]-4,5,11-triazatricyclo[6.2.1.02,6]undeca-2,5-diene-11-carbonyl]-5-[(7S)-4-oxaspiro[2.5]octan-7-yl]indol-1-yl]-2-methyl-cyclopropyl]-4H-1,2,4-oxadiazol-5-one] | ≥ 10 µM
Cc1cc(-n2nc3c(c2-n2ccn(-c4ccc5c(cnn5C)c4F)c2=O)[C@@H]2CCC[C@H](C3)N2S(=O)(=O)c2cc3cc(C4CCOCC4)ccc3n2[C@@]2(c3noc(=O)[nH]3)C[C@@H]2C)cc(C)c1F [Compound 533, 3-[(1S,2S)-1-[2-[[(1S,8R)-4-(4-fluoro-3,5-dimethyl-phenyl)-3-[3-(4-fluoro-1-methyl-indazol-5-yl)-2-oxo-imidazol-1-yl]-4,5,12-triazatricyclo[6.3.1.02,6]dodeca-2,5-dien-12-yl]sulfonyl]-5-tetrahydropyran-4-yl-indol-1-yl]-2-methyl-cyclopropyl]-4H-1,2,4-oxadiazol-5-one] | 10.4 µM
Cc1cc(-n2nc3c(c2-n2ccn(-c4ccc5c(cnn5C)c4F)c2=O)[C@@H]2CCC[C@H](C3)N2S(=O)(=O)c2cc3cc(N4CCOC5(CC5)C4)ccc3n2[C@@]2(c3noc(=O)[nH]3)C[C@@H]2C)cc(C)c1F [Compound 535, 3-[(1S,2S)-1-[2-[[(1S,8R)-4-(4-fluoro-3,5-dimethyl-phenyl)-3-[3-(4-fluoro-1-methyl-indazol-5-yl)-2-oxo-imidazol-1-yl]-4,5,12-triazatricyclo[6.3.1.02,6]dodeca-2,5-dien-12-yl]sulfonyl]-5-(4-oxa-7-azaspiro[2.5]octan-7-yl)indol-1-yl]-2-methyl-cyclopropyl]-4H-1,2,4-oxadiazol-5-one] | 1.89 µM
Cc1cc(-n2nc3c(c2-n2ccn(-c4ccc5c(cnn5C)c4F)c2=O)[C@@H]2COC[C@H](C3)N2S(=O)(=O)c2cc3cc([C@H]4CCOC(C)(C)C4)ccc3n2[C@@]2(c3noc(=O)[nH]3)C[C@@H]2C)cc(C)c1F [Compound 536, 3-((1S,2S)-1-(5-((S)-2,2-dimethyltetrahydro-2H-pyran-4-yl)-2-(((4R,8S)-3-(3-(4-fluoro-1-methyl-1H-indazol-5-yl)-2-oxo-2,3-dihydro-1H-imidazol-1-yl)-2-(4-fluoro-3,5-dimethylphenyl)-2,4,5,7,8,9-hexahydro-4,8-epiminooxocino [5,4-c]pyrazol-10-yl)sulfonyl)-1H-indol-1-yl)-2-methylcyclopropyl)-1,2,4-oxadiazol-5 (4H)-one] | 0.262 µM

Second part, the compound after the results:

EC50 | Structure (SMILES)
0.617 µM | Cc1cc(-n2nc3c(c2-n2ccn(-c4ccc5c(cnn5C)c4F)c2=O)[C@@H]2CC[C@H](CC3)N2C(=O)c2cc3cc([C@H]4CCOC(C)(C)C4)ccc3n2[C@@]2(c3noc(=O)[nH]3)C[C@@H]2C)cc(C)c1F [Compound 523, 3-[(1S,2S)-1-[5-[(4S)-2,2-dimethyltetrahydropyran-4-yl]-2-[(1S,9R)-4-(4-fluoro-3,5-dimethyl-phenyl)-3-[3-(4-fluoro-1-methyl-indazol-5-yl)-2-oxo-imidazol-1-yl]-4,5,12-triazatricyclo[7.2.1.02,6]dodeca-2,5-diene-12-carbonyl]indol-1-yl]-2-methyl-cyclopropyl]-4H-1,2,4-oxadiazol-5-one]
0.0584 µM | Cc1cc(-n2nc3c(c2-n2ccn(-c4ccc5c(cnn5C)c4F)c2=O)[C@@H]2CC[C@H](C3)N2S(=O)(=O)c2cc3cc([C@H]4CCOC(C)(C)C4)ccc3n2[C@@]2(c3noc(=O)[nH]3)C[C@@H]2C)cc(C)c1F [Compound 525, 3-[(1S,2S)-1-[5-[(4S)-2,2-dimethyltetrahydropyran-4-yl]-2-[[(1S,8R)-4-(4-fluoro-3,5-dimethyl-phenyl)-3-[3-(4-fluoro-1-methyl-indazol-5-yl)-2-oxo-imidazol-1-yl]-4,5,11-triazatricyclo[6.2.1.02,6]undeca-2,5-dien-11-yl]sulfonyl]indol-1-yl]-2-methyl-cyclopropyl]-4H-1,2,4-oxadiazol-5-one]
1.44 µM | Cc1cc(-n2nc3c(c2-n2ccn(-c4ccc5c(cnn5C)c4F)c2=O)[C@@H]2CC[C@H](C3)N2C(=O)c2cc3cc([C@H]4CCOC5(CC5)C4)ccc3n2[C@]2(c3noc(=O)[nH]3)C[C@@H]2C)cc(C)c1F [Compound 528, 3-[(1R,2S)-1-[2-[(1S,8R)-4-(4-fluoro-3,5-dimethyl-phenyl)-3-[3-(4-fluoro-1-methyl-indazol-5-yl)-2-oxo-imidazol-1-yl]-4,5,11-triazatricyclo[6.2.1.02,6]undeca-2,5-diene-11-carbonyl]-5-[(7S)-4-oxaspiro[2.5]octan-7-yl]indol-1-yl]-2-methyl-cyclopropyl]-4H-1,2,4-oxadiazol-5-one]
≥ 10 µM | Cc1cc(-n2nc3c(c2-n2ccn(-c4ccc5c(cnn5C)c4F)c2=O)[C@@H]2CC[C@H](C3)N2C(=O)c2cc3cc([C@@H]4CCOC5(CC5)C4)ccc3n2[C@]2(c3noc(=O)[nH]3)C[C@@H]2C)cc(C)c1F [Compound 529, 3-[(1R,2S)-1-[2-[(1S,8R)-4-(4-fluoro-3,5-dimethyl-phenyl)-3-[3-(4-fluoro-1-methyl-indazol-5-yl)-2-oxo-imidazol-1-yl]-4,5,11-triazatricyclo[6.2.1.02,6]undeca-2,5-diene-11-carbonyl]-5-[(7R)-4-oxaspiro[2.5]octan-7-yl]indol-1-yl]-2-methyl-cyclopropyl]-4H-1,2,4-oxadiazol-5-one]
0.672 µM | Cc1cc(-n2nc3c(c2-n2ccn(-c4ccc5c(cnn5C)c4F)c2=O)[C@@H]2CC[C@H](C3)N2C(=O)c2c(C)c3cc([C@H]4CCOC(C)(C)C4)ccc3n2[C@@]2(c3noc(=O)[nH]3)C[C@@H]2C)cc(C)c1F [Compound 532, 3-[(1S,2S)-1-[5-[(4S)-2,2-dimethyltetrahydropyran-4-yl]-2-[(1S,8R)-4-(4-fluoro-3,5-dimethyl-phenyl)-3-[3-(4-fluoro-1-methyl-indazol-5-yl)-2-oxo-imidazol-1-yl]-4,5,11-triazatricyclo[6.2.1.02,6]undeca-2,5-diene-11-carbonyl]-3-methyl-indol-1-yl]-2-methyl-cyclopropyl]-4H-1,2,4-oxadiazol-5-one]
≥ 10 µM | Cc1cc(-n2nc3c(c2-n2ccn(-c4ccc5c(cnn5C)c4F)c2=O)[C@@H]2CCC[C@H](C3)N2S(=O)(=O)c2cc3cc(C4CCOCC4)ccc3n2[C@]2(c3noc(=O)[nH]3)C[C@@H]2C)cc(C)c1F [Compound 534, 3-[(1R,2S)-1-[2-[[(1S,8R)-4-(4-fluoro-3,5-dimethyl-phenyl)-3-[3-(4-fluoro-1-methyl-indazol-5-yl)-2-oxo-imidazol-1-yl]-4,5,12-triazatricyclo[6.3.1.02,6]dodeca-2,5-dien-12-yl]sulfonyl]-5-tetrahydropyran-4-yl-indol-1-yl]-2-methyl-cyclopropyl]-4H-1,2,4-oxadiazol-5-one]
